According to US20040152106A1, “Gene necessary for striatal function, uses thereof, and compounds for modulating same” (priority 1999, published 2004):

Key:
[1] = molecular target: T1, PDE10A (Mus musculus, UniProt Q8CA95); details: among inhibitors tested on PDE10A; cited from earlier work
T1 sequence (Q8CA95 1-779 isoform Q8CA95-2): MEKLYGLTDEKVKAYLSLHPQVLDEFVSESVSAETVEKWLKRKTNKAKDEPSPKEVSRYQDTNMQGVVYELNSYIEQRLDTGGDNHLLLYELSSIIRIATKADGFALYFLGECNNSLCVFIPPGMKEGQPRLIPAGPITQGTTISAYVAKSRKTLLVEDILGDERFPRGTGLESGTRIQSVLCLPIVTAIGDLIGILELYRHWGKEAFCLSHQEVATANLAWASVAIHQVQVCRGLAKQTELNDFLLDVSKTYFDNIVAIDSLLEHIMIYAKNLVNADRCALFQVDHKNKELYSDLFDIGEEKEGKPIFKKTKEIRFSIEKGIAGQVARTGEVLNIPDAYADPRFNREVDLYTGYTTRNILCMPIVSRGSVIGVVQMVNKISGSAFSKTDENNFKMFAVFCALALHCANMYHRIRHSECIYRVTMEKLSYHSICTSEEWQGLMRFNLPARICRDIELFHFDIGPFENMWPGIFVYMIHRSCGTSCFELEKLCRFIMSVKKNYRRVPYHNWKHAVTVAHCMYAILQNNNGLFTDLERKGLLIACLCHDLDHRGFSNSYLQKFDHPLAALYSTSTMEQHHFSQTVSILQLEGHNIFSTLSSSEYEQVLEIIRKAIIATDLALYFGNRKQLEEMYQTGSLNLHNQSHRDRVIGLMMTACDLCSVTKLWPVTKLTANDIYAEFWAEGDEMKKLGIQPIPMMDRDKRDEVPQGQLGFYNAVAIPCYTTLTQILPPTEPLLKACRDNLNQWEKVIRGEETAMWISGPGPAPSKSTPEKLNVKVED

[2] = tested on: Huntington's disease patient; experiment: Clinical use of PDE10A modulator in a Huntington's disease patient (case report); format: in vivo, human; details: 200 mg twice daily resumed after 7 days of suspension
Method: A person was admitted to hospital from a long-term care facility due to progressive deterioration of their physical and mental symptoms caused by Huntington's disease. The patient had been diagnosed with Huntington's disease. Prior to admission to the hospital, they had become increasingly aggressive and uncooperative. Moreover, there appeared to be an increase in the number of psychotic episodes. […] The patient had been stable for a number of years on the antipsycotic haloperidol (3 mg/day). For the last two years, the haloperidol had been replaced by olanzapine (2.5-7.5 mg/day). Minocycline, a tetracycline derivative, was administered at 50 mg twice daily for 7 days, followed by 100 mg twice daily for 7 days and finally 200 mg twice daily for 5 weeks. […] The minocycline treatment was suspended for 7 days. […] Minocycline (200 mg twice daily) treatment will continue indefinitely. The improvement in behaviour and decrease in apparent psychosis has allowed for the transfer of the patient from the acute care facility back to long-term care.

SMILES: OCCN(CCO)c1nc(N2CCCCC2)c2nc(N(CCO)CCO)nc(N3CCCCC3)c2n1 [Dipyridamole]
- potency as inhibitor of PDE10A activity [1]: highest potency

SMILES: CC(C)Cn1c(=O)n(C)c(=O)c2[nH]cnc21 [IBMX]
- potency as inhibitor of PDE10A activity [1]: potent inhibitor

SMILES: CN(C)c1ccc(O)c2c1C[C@H]1C[C@H]3[C@H](N(C)C)C(O)=C(C(N)=O)C(=O)[C@@]3(O)C(O)=C1C2=O [Minocycline]
- time to response after resumed treatment [2]: ≤ 3 days

SMILES: CN1C(=O)c2[nH]c(Cc3ccc(C(F)(F)F)cc3)nc2N2C1=N[C@@H]1CCC[C@@H]12 [SCH 51866]
- potency as inhibitor of PDE10A activity [1]: highest potency
